Converted amounts (≈) assume the structure as drawn. Peptide text beside a SMILES is read from it.
Assays:
A. baumannii ATCC 19606 = assay: microbe, parasite or virus in culture
Description: (§1) Briefly, 10^5 bacterial cells were incubated with serially diluted EPs (0–64 μmol l^−1) at 37 °C. Bacterial growth was assessed by measuring the optical density at 600 nm in a microplate reader at 1 day post-treatment. […] Secondary structure fractions were calculated using the BeStSel server. fH and fβ stand for helical and β fractions, respectively.

[1] = system: E. faecium ATCC 700221 (VRE); assay: microbe, parasite or virus in culture; details: for MIC E. faecium ATCC 700221 – VRE (+): ATCC 700221, 24 h; for MIC, E. faecium ATCC 700221 - VRE (+): Fig 2a source data, Gram-positive, broth microdilution
Description: as §1

[2] = system: E. coli AIC222 (colistin-resistant, CRE); assay: microbe, parasite or virus in culture; set-up: MIC, E. coli AIC222 - CRE (-): unit not given beside the values; details: Fig 2a source data; Gram-negative, CRE; broth microdilution
Description: as §1

A. baumannii = assay: Cytoplasmic membrane fluidity, Laurdan generalized polarization; type: cell-based, Acinetobacter baumannii; details: peptides at 100× MIC stock diluted 1:100, 30 min, λex 350, λem 440/490 nm; mean of 3 independent experiments
Source text: Fig. 4 Mechanism of action, haemolytic activity and cytotoxicity of antibiotics from the archaeome. […] The fluorescence probe NPN was used to assess membrane permeabilization (a) induced by the tested EPs (Extended Data Fig. 6a). The fluorescence probe DiSC3-5 was used to evaluate membrane depolarization (b) caused by archaeasins (Extended Data Fig. 6b). The shown values represent the relative fluorescence of both probes, with nonlinear fitting compared with the baseline of the untreated control (buffer + bacteria + fluorescence dye) and benchmarked against the antibiotics polymyxin B and levofloxacin. c, Laurdan generalized polarization over time in A. baumannii treated with archaeasins. […] Higher generalized polarization values indicate increased membrane rigidity, whereas lower values reflect increased membrane fluidity. Benzyl alcohol was used as a positive control for membrane fluidization, and untreated cells served as a negative control. […] All experiments were performed in three independent replicates (Extended Data Fig. 7). The protein and peptide structures depicted in panels a and b were created with PyMOL Molecular Graphics System, v.3.0 (Schrödinger).

K. pneumoniae ATCC 13883 = assay: microbe, parasite or virus in culture; details: for MIC K. pneumoniae ATCC 13883 (−): ATCC 13883, 24 h; for MIC, K. pneumoniae ATCC 13883 (-): Fig 2a source data, Gram-negative, broth microdilution
Description: as §1

S. aureus ATCC 12600 = assay: microbe, parasite or virus in culture
Description: as §1

E. coli ATCC 11775 = assay: microbe, parasite or virus in culture; set-up: MIC, E. coli ATCC 11775 (-): unit not given beside the values; details: for MIC, E. coli ATCC 11775 (-): Fig 2a source data, Gram-negative, broth microdilution
Description: as §1

E. coli AIC221 = assay: microbe, parasite or virus in culture; set-up: MIC, E. coli AIC221 (-): unit not given beside the values; details: for MIC E. coli AIC221 (−): AIC221, 24 h; for MIC, E. coli AIC221 (-): Fig 2a source data, Gram-negative, broth microdilution
Description: as §1

P. aeruginosa PAO1 = assay: microbe, parasite or virus in culture; set-up: MIC, P. aeruginosa PAO1 (-): unit not given beside the values
Description: as §1

P. aeruginosa PA14 = assay: microbe, parasite or virus in culture; set-up: MIC, P. aeruginosa PA14 (-): unit not given beside the values
Description: as §1

[3] = system: S. aureus ATCC BAA-1556 (MRSA); assay: microbe, parasite or virus in culture; set-up: MIC, S. aureus ATCC BAA-1556 - MRSA (+): unit not given beside the values
Description: as §1

[4] = system: human red blood cells (RBCs); details: for HC50 (source data of Fig. 4) / HC50, peptide concentration leading to 50% RBC lysis: red cells of human, 4 h
Description: To assess the potential toxicity of the synthesized archaeasins, we exposed them to human red blood cells (RBCs), a common method for evaluating the toxicity of antimicrobial agents[20],[26],[27].
To evaluate the release of haemoglobin from human erythrocytes upon treatment of each of the EPs, human RBCs were obtained from Zen-Bio (donor, blood type A^−) obtained from heparin anti-coagulated blood. RBCs were washed with PBS (pH 7.4) 4× by centrifugation at 800g for 10 min. Aliquots of 200-fold-diluted cells (75 μl) were mixed with peptide solution (0.78–100 μmol l^−1; 75 μl), and the mixture was incubated for 4 h at room temperature. After incubation, the plate was centrifuged at 1,300g for 10 min to precipitate cells and debris, and 100 μl of supernatant from each well was transferred to a new 96-well plate for absorbance reading (405 nm) using an automatic plate reader. The percentage of haemolysis was defined by comparison with negative control (samples containing PBS) and positive control (samples containing 1% (v/v) SDS in PBS solution). Haemolysis(%)=100×(absorbance405nmpeptide−absorbance405nmnegativecontrol)/(absorbance405nmpositivecontrol−absorbance405nmnegativecontrol)
All assays were performed in three independent biological replicates as indicated in each figure legend and in the Methods. […] In the skin abscess and thigh infection mouse models, we used six mice per group following established protocols approved by the University Laboratory of Animal Resources of the University of Pennsylvania.
Extended Data Fig. 7 Hemolytic activity of archaeasins. Hemolytic activity was assessed by exposing red blood cells to archaeasins, with lysis determined by absorbance readings after 4 h. The peptides were added to plates and subjected to a two-fold dilution series (ranging from 64 to 4 μmol L^−1) before exposure to the red blood cells. Source data

[5] = Fig 2a source data, Gram-negative, broth microdilution

Structure (SMILES) | MIC, A. baumannii ATCC 19606 (-) (A. baumannii ATCC 19606) | MIC E. faecium ATCC 700221 – VRE (+) [1] | MIC, E. faecium ATCC 700221 - VRE (+) [1] | MIC, E. coli AIC222 - CRE (-) [2] | Laurdan generalized polarization change of cytoplasmic membrane (A. baumannii) | MIC K. pneumoniae ATCC 13883 (−) (K. pneumoniae ATCC 13883) | MIC, K. pneumoniae ATCC 13883 (-) (K. pneumoniae ATCC 13883) | MIC, E. coli ATCC 11775 (-) (E. coli ATCC 11775) | MIC E. coli AIC221 (−) (E. coli AIC221) | MIC, E. coli AIC221 (-) (E. coli AIC221) | HC50 (source data of Fig. 4) [4] | HC50, peptide concentration leading to 50% RBC lysis [4] | also measured
CC[C@H](C)[C@H](N)C(=O)N[C@@H](CC(C)C)C(=O)NCC(=O)NCC(=O)N[C@@H](CCCCN)C(=O)N[C@@H](CC(C)C)C(=O)N[C@H](C(=O)N[C@@H](CCCCN)C(=O)N[C@@H](CCCCN)C(=O)N[C@@H](CO)C(=O)N[C@@H](CC(C)C)C(=O)N[C@@H](CCCCN)C(=O)N[C@@H](CC(C)C)C(=O)O)[C@@H](C)CC [Archaeasin-21] (H-ILGGKLIKKSLKL-OH; N-terminus and C-terminus assumed) | 64 | 64 µmol/L (≈ 90.3 µg/mL) | 64 | 64 | only modest or even decreasing generalized polarization shifts | – | – | – | – | – | – | – | –
CC[C@H](C)[C@H](NC(=O)[C@H](CC(C)C)NC(=O)[C@H](CC(C)C)NC(=O)[C@H](CCCNC(=N)N)NC(=O)[C@H](C)NC(=O)[C@H](CC(C)C)NC(=O)[C@H](Cc1ccc(O)cc1)NC(=O)CNC(=O)[C@H](C)NC(=O)CN)C(=O)N[C@@H](CCCNC(=N)N)C(=O)N[C@@H](CCCNC(=N)N)C(=O)N[C@@H](CO)C(=O)N[C@@H](CC(C)C)C(=O)N[C@@H](CCCNC(=N)N)C(=O)N[C@@H](CC(C)C)C(=O)N[C@@H](CC(C)C)C(=O)N[C@@H](CCCNC(=N)N)C(=O)N[C@@H](CCCNC(=N)N)C(=O)N[C@@H](CC(C)C)C(=O)O [Archaeasin-78] (H-GAGYLARLLIRRSLRLLRRL-OH; N-terminus and C-terminus assumed) | 1 | 1 µmol/L (≈ 2.37 µg/mL) | 1 | 4 | pronounced increases in generalized polarization values over time | 4 µmol/L (≈ 9.47 µg/mL) | 4 | 32 | 1 µmol/L (≈ 2.37 µg/mL) | 1 | 5.537 µmol/L | 6 µmol/L | MIC S. aureus ATCC 12600 (+) (S. aureus ATCC 12600; ATCC 12600, 24 h): 8 µmol/L (≈ 18.9 µg/mL); MIC S. aureus ATCC 12600 (+) (S. aureus ATCC 12600; Fig 2a source data, Gram-positive, broth microdilution): 8; MIC, P. aeruginosa PAO1 (-) (P. aeruginosa PAO1; [5]): 8; MIC P. aeruginosa PAO1 (−) (P. aeruginosa PAO1; PAO1, 24 h): 8 µmol/L (≈ 18.9 µg/mL); MIC, P. aeruginosa PA14 (-) (P. aeruginosa PA14; [5]): 16; MIC P. aeruginosa PA14 (−) (P. aeruginosa PA14; PA14, 24 h): 16 µmol/L (≈ 37.9 µg/mL); MIC S. aureus ATCC BAA-1556 – MRSA (+) ([3]; ATCC BAA-1556, 24 h): 8 µmol/L (≈ 18.9 µg/mL); MIC, S. aureus ATCC BAA-1556 - MRSA (+) ([3]; Fig 2a source data, Gram-positive, MRSA, broth microdilution): 8; haemolytic effects [4]: did show haemolytic effects
CC[C@H](C)[C@H](N)C(=O)NCC(=O)N[C@@H](Cc1c[nH]c2ccccc12)C(=O)N[C@H](C(=O)N[C@@H](CO)C(=O)N[C@@H](CC(N)=O)C(=O)N[C@@H](CCCNC(=N)N)C(=O)N[C@H](C(=O)N[C@H](C(=O)N[C@@H](CC(C)C)C(=O)N[C@@H](CCCCN)C(=O)N[C@@H](CC(C)C)C(=O)N[C@@H](CC(C)C)C(=O)N[C@@H](CCCNC(=N)N)C(=O)N[C@@H](Cc1ccccc1)C(=O)N[C@@H](C)C(=O)N[C@@H](CCCCN)C(=O)N[C@@H](CC(N)=O)C(=O)N[C@@H](CCSC)C(=O)N[C@@H](CCCCN)C(=O)O)[C@@H](C)CC)C(C)C)[C@@H](C)CC [Archaeasin-22] (H-IGWISNRVILKLLRFAKNMK-OH; N-terminus and C-terminus assumed) | 1 | – | – | 4 | only modest or even decreasing generalized polarization shifts | 16 µmol/L (≈ 38.4 µg/mL) | 16 | 16 | 2 µmol/L (≈ 4.8 µg/mL) | 2 | 7.224 µmol/L | 7 µmol/L | MIC E. coli ATCC 11775 (−) (E. coli ATCC 11775; ATCC 11775, 24 h): 16 µmol/L (≈ 38.4 µg/mL)
CC[C@H](C)[C@H](NC(=O)[C@H](Cc1c[nH]c2ccccc12)NC(=O)[C@H](CCCCN)NC(=O)[C@H](CC(C)C)NC(=O)[C@H](CCCNC(=N)N)NC(=O)[C@H](C)NC(=O)[C@H](CCCNC(=N)N)NC(=O)[C@H](C)NC(=O)[C@H](CC(C)C)NC(=O)[C@H](Cc1c[nH]c2ccccc12)NC(=O)[C@@H](N)CC(C)C)C(=O)N[C@H](C(=O)O)[C@@H](C)O [Archaeasin-57] (H-LWLARARLKWIT-OH; N-terminus and C-terminus assumed) | 16 | 8 µmol/L (≈ 12.2 µg/mL) | 8 | 64 | pronounced increases in generalized polarization values over time | – | – | – | 64 µmol/L (≈ 97.7 µg/mL) | 64 | 203.9 µmol/L | – | –

Source: PMC12408343, “Deep learning reveals antibiotics in the archaeal proteome” (Nature Microbiology, 2025)
